Source: patent US10954214B2 (Janssen Pharmaceutica NV, priority 2016, dated 2021)

How the values were obtained:
[1] = system: IL10 secretion by TMD8 ABC-DLBCL cells; test: Human IL10 Mesoscale assay (TMD-8); type: cell-based; conditions: Homo sapiens, TMD8; TMD-8 cells, 24 h
Summary of the method: (§1)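 Compounds tested from 15 μM to 58.6 nM (twofold, 9 concentrations) on 100,000 cells per well over 24 h at 37° C, without beta-mercaptoethanol. Secreted cytokine in supernatant detected by MSD electrochemiluminescence; scaling used DMSO as maximum and RN486 as full inhibition.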

[2] = system: TMD8 cells; test: 4-day proliferation assay, TMD8; type: cell-based; conditions: Homo sapiens, 96 h, 4 days incubation, CellTiterGLO, read-out: Anti-proliferation: TMD-8 IC50
Summary of the method: (§2)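 TMD8 and OCI-Ly3 cells were seeded at 10,000 per well and grown 4 days at 37° C, 5% CO2 without beta-mercaptoethanol. Viability was read by CellTiter-Glo luminescence. IC50 and Hill slope were fitted relative to the low control median.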

[3] = molecular target: full-length MALT1 protein (Strep-MALT1(1-824)-His) (Homo sapiens (Human), UniProt Q9UDY8); test: MALT1 Biochemical Protease Assay (Ac-LRSR-AMC substrate); conditions: 10 nM FL MALT1, 200 μM Ac-LRSR-AMC, 4 h at RT; read-out: MALT1_Biochemical activity (Ac-LRSR-amc) IC50
Summary of the method: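 Full-length MALT1 pre-incubated with compounds (30 μM to 0.5 nM, 11 threefold steps) for 50 min at RT. After Ac-LRSR-AMC was added, the reaction ran 4 h at RT and AMC fluorescence was read. IC50 and Hill slope from curve fitting against no-enzyme and no-compound controls.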

[4] = system: IL6 secretion by TMD8 ABC-DLBCL cells; test: Human IL6 Mesoscale assay (TMD-8); type: cell-based; conditions: Homo sapiens, TMD8; TMD-8 cells, 24 h
Summary of the method: as §1

[5] = system: OCI-Ly3 cells; test: 4-day proliferation assay, OCI-Ly3; type: cell-based, human; conditions: Homo sapiens, 96 h, 4 days incubation, CellTiterGLO, read-out: Anti-proliferation: OCI-LY-3 IC50
Summary of the method: as §2

full-length MALT1 protein (Strep-MALT1(1-824)-His), sequence (Q9UDY8 whole entry): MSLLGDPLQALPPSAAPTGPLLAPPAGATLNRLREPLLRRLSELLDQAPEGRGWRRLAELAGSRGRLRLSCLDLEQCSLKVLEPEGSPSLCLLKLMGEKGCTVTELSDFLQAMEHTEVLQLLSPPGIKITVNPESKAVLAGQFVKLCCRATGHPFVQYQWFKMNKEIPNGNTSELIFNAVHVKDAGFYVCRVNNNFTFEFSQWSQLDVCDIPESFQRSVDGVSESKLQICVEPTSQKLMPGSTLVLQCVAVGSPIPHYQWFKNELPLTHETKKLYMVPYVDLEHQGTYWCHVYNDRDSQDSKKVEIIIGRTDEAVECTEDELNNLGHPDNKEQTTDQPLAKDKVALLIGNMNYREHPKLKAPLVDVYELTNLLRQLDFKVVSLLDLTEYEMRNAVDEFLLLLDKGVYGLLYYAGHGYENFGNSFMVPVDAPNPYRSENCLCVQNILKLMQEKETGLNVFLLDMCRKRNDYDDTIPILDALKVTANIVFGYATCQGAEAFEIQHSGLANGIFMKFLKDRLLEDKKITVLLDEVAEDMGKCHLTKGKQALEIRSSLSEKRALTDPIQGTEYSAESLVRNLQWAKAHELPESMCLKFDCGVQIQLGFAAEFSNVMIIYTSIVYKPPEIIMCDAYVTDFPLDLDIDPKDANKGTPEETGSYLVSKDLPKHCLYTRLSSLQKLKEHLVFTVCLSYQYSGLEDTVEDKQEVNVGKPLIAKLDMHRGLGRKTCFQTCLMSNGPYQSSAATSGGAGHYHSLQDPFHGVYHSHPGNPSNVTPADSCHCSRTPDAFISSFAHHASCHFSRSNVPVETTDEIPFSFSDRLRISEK

Row | Structure (SMILES) | IC50 [1] | IC50 [2] | IC50 [3] | IC50 [4] | IC50 [5]
1 | N#Cc1cc(NC(=O)c2cnn(-c3cncc4ccccc34)c2C(F)(F)F)ccc1-n1ccnn1 [Cpd 62, N-(3-cyano-4-(1H-1,2,3-triazol-1-yl)phenyl)-1-(isoquinolin-4-yl)-5-(trifluoromethyl)-1H-pyrazole-4-carboxamide] | 85 nM | 10000 nM | 59 nM | 112 nM | 230 nM
2 | Cn1ccnc1-c1ncc(NC(=O)c2cnn(-c3cncc4ccccc34)c2C(F)(F)F)cc1Cl [Cpd 98, N-(5-chloro-6-(1-methyl-1H-imidazol-2-yl)pyridin-3-yl)-1-(isoquinolin-4-yl)-5-(trifluoromethyl)-1H-pyrazole-4-carboxamide] | 417 nM | ~11000 nM | 200 nM | 468 nM | 5750 nM
3 | O=C(Nc1cnc(-n2nccn2)c(C(F)(F)F)c1)c1cnn(-c2cccc3ncccc23)c1C(F)(F)F [Cpd 146, N-(6-(2H-1,2,3-triazol-2-yl)-5-(trifluoromethyl)pyridin-3-yl)-1-(quinolin-5-yl)-5-(trifluoromethyl)-1H-pyrazole-4-carboxamide] | 132 nM | 1020 nM | 32 nM | 331 nM | 337 nM
4 | N#Cc1cc(NC(=O)c2cnn(-c3cncc4ccccc34)c2C(F)(F)F)cnc1OCCCCN [Cpd 84, N-(6-(4-aminobutoxy)-5-cyanopyridin-3-yl)-1-(isoquinolin-4-yl)-5-(trifluoromethyl)-1H-pyrazole-4-carboxamide] | 355 nM | > 20000 nM | 214 nM | 148 nM | 1700 nM
5 | Nc1nccc(-c2ccc(NC(=O)c3cnn(-c4cncc5ccccc45)c3C(F)(F)F)cc2Cl)n1 [Cpd 58, N-(4-(2-Aminopyrimidin-4-yl)-3-chlorophenyl)-1-(isoquinolin-4-yl)-5-(trifluoromethyl)-1H-pyrazole-4-carboxamide] | 288 nM | 4470 nM | 141 nM | 331 nM | 500 nM
6 | N#Cc1cc(NC(=O)c2cnn(-c3cccc4ncccc34)c2C(F)(F)F)cnc1-n1cncn1 [Cpd 86, N-(5-cyano-6-(1H-1,2,4-triazol-1-yl)pyridin-3-yl)-1-(quinolin-5-yl)-5-(trifluoromethyl)-1H-pyrazole-4-carboxamide] | 148 nM | ~11200 nM | 71 nM | 37 nM | 780 nM
7 | O=C(Nc1cnc(-n2cc(CO)cn2)c(Cl)c1)c1cnn(-c2cccc3c(=O)[nH]ccc23)c1C(F)(F)F [Cpd 182, N-(5-chloro-6-(4-(hydroxymethyl)-1H-pyrazol-1-yl)pyridin-3-yl)-1-(1-oxo-1,2-dihydroisoquinolin-5-yl)-5-(trifluoromethyl)-1H-pyrazole-4-carboxamide] | 2510 nM | 5250 nM | 35 nM | 7590 nM | 3140 nM
8 | O=C(Nc1ccc(-n2cc(CO)cn2)c(Cl)c1)c1cnn(-c2cccc3ncccc23)c1C(F)(F)F [Cpd 175, N-(3-chloro-4-(4-(hydroxymethyl)-1H-pyrazol-1-yl)phenyl)-1-(quinolin-5-yl)-5-(trifluoromethyl)-1H-pyrazole-4-carboxamide] | 204 nM | 1230 nM | 47 nM | > 3020 nM | 1080 nM
9 | Cc1nc(-n2nccn2)c(C#N)cc1NC(=O)c1cnn(-c2cncc3c(F)cccc23)c1C(F)(F)F [Cpd 124, N-(5-cyano-2-methyl-6-(2H-1,2,3-triazol-2-yl)pyridin-3-yl)-1-(8-fluoroisoquinolin-4-yl)-5-(trifluoromethyl)-1H-pyrazole-4-carboxamide] | 15 nM | 977 nM | 20 nM | 21 nM | 593 nM
10 | O=C(Nc1cnc(-n2nccn2)c(Cl)c1)c1cnn(-c2cccc3[nH]ncc23)c1C(F)(F)F [Cpd 68, N-(5-Chloro-6-(2H-1,2,3-triazol-2-yl)pyridin-3-yl)-1-(1H-indazol-4-yl)-5-(trifluoromethyl)-1H-pyrazole-4-carboxamide] | 257 nM | ~19000 nM | 151 nM | 417 nM | 370 nM
11 | N#Cc1cc(NC(=O)c2cnn(-c3ncnc4sccc34)c2C(F)(F)F)cnc1-n1nccn1 [Cpd 142, N-(5-cyano-6-(2H-1,2,3-triazol-2-yl)pyridin-3-yl)-1-(thieno[2,3-d]pyrimidin-4-yl)-5-(trifluoromethyl)-1H-pyrazole-4-carboxamide] | 17 nM | 832 nM | 26 nM | 107 nM | 380 nM
12 | O=C(Nc1cnc(-c2nnco2)c(Cl)c1)c1cnn(-c2cncc3ccccc23)c1C(F)(F)F [Cpd 69, N-(5-Chloro-6-(1,3,4-oxadiazol-2-yl)pyridin-3-yl)-1-(isoquinolin-4-yl)-5-(trifluoromethyl)-1H-pyrazole-4-carboxamide] | 63 nM | ~16200 nM | 60 nM | 58 nM | 430 nM
13 | CN1CCN(C(=O)c2ncc(NC(=O)c3cnn(-c4cncc5ccccc45)c3C(F)(F)F)cc2C#N)CC1 [Cpd 96, N-(5-cyano-6-(4-methylpiperazine-1-carbonyl)pyridin-3-yl)-1-(isoquinolin-4-yl)-5-(trifluoromethyl)-1H-pyrazole-4-carboxamide] | 676 nM | ~15500 nM | 759 nM | 1050 nM | 7080 nM
14 | N#Cc1cc(NC(=O)c2cnn(-c3nccc4ccsc34)c2C(F)(F)F)cnc1-n1nccn1 [Cpd 143, N-(5-cyano-6-(2H-1,2,3-triazol-2-yl)pyridin-3-yl)-1-(thieno[2,3-c]pyridin-7-yl)-5-(trifluoromethyl)-1H-pyrazole-4-carboxamide] | 56 nM | 9550 nM | 26 nM | 98 nM | 423 nM
15 | [2H]c1ccc2c(-n3ncc(C(=O)Nc4cnc(-n5nccn5)c(C#N)c4)c3C(F)(F)F)cccc2n1 [Cpd 130, N-(5-cyano-6-(2H-1,2,3-triazol-2-yl)pyridin-3-yl)-1-(2-D-quinolin-5-yl)-5-(trifluoromethyl)-1H-pyrazole-4-carboxamide] | 166 nM | 3470 nM | 17 nM | 214 nM | 417 nM
16 | Cn1nc(-c2ncc(NC(=O)c3cnn(-c4cccc5c(=O)[nH]ccc45)c3C(F)(F)F)cc2Cl)cc1N [Cpd 183, N-(6-(5-amino-1-methyl-1H-pyrazol-3-yl)-5-chloropyridin-3-yl)-1-(1-oxo-1,2-dihydroisoquinolin-5-yl)-5-(trifluoromethyl)-1H-pyrazole-4-carboxamide] | 2140 nM | > 20000 nM | 35 nM | 6610 nM | 3570 nM
17 | NCCCCNC(=O)c1ncc(NC(=O)c2cnn(-c3cncc4ccccc34)c2C(F)(F)F)cc1Cl [Cpd 72, N-(4-aminobutyl)-3-chloro-5-(1-(isoquinolin-4-yl)-5-(trifluoromethyl)-1H-pyrazole-4-carboxamido)picolinamide] | 1380 nM | > 20000 nM | 407 nM | 851 nM | 1660 nM
18 | O=C(Nc1cnc(-n2nccn2)c(Cl)c1)c1cnn(-c2nccc3ccccc23)c1C(F)F [Cpd 56, N-(5-Chloro-6-(2H-1,2,3-triazol-2-yl)pyridin-3-yl)-5-(difluoromethyl)-1-(isoquinolin-1-yl)-1H-pyrazole-4-carboxamide] | 275 nM | > 20000 nM | 257 nM | 490 nM | 540 nM
19 | Cn1ccc(-c2ncc(NC(=O)c3cnn(-c4cccc5ncccc45)c3C(F)(F)F)cc2C#N)n1 [Cpd 89, N-(5-cyano-6-(1-methyl-1H-pyrazol-3-yl)pyridin-3-yl)-1-(quinolin-5-yl)-5-(trifluoromethyl)-1H-pyrazole-4-carboxamide] | 95 nM | > 20000 nM | 41 nM | 74 nM | 740 nM
20 | N#Cc1cc(NC(=O)c2cnn(-c3cncc4ccccc34)c2C(F)(F)F)ccc1-n1nccn1 [Cpd 59, N-(3-Cyano-4-(2H-1,2,3-triazol-2-yl)phenyl)-1-(isoquinolin-4-yl)-5-(trifluoromethyl)-1H-pyrazole-4-carboxamide] | 74 nM | 6760 nM | 31 nM | 68 nM | 140 nM
21 | CCOc1ncc(NC(=O)c2cnn(-c3cccc4ncccc34)c2C(F)(F)F)cc1C#N [Cpd 81, N-(5-cyano-6-ethoxypyridin-3-yl)-1-(quinolin-5-yl)-5-(trifluoromethyl)-1H-pyrazole-4-carboxamide] | 138 nM | 11500 nM | 123 nM | 135 nM | ~1350 nM
